Patent publication US20160223554A1, “METHODS FOR DIAGNOSIS, PROGNOSIS AND METHODS OF TREATMENT” (priority 2011, published 2016)
Where two headings read alike, the source gives them in different places. Residues, ends and D or L forms follow the SMILES beside them. *: point of attachment. Cbz = O=C(OCc1ccccc1)*; CH2F = FC*

How the values were obtained:
AML blasts = assay: SCNP functional apoptosis and DNA damage response assay in AML PBMC (Examples 2, 6, 8, 10); assay type: cell-based, human; settings: with staurosporine or etoposide
Description: A viable cell will be Aqua negative and PARP negative and a measure of cell death is PARP and/or Aqua positivity.
“Apoptosis”=% of PARP^−Aqua^−unstim−% of PARP^−Aqua^−Drug.
Functional assays were performed as previously described. See Irish, et al., Cell 2004; 118:217-228.
The median fluorescence intensity (MFI) was computed for each node from the fluorescence intensity levels for the cells in the myeloid population. The MFI values were then used to compute a variety of metrics by comparing them to baseline or background values, including the unmodulated condition, cellular autofluorescence and antibody isotype controls. The following metrics were computed: • 1. Basal MFI (“Basal”)=log2(MFIUnmodulated Stained)−log2(MFIGated Unstained (Autofluoresence)), designed to measure the basal levels of a certain protein under unmodulated conditions. • 2. Fold Change MFI (“Fold”)=log2(MFIModulated Stained)−log2(MFIUnmodulated Stained), a measure of the change in the activation state of a protein under modulated conditions. • 3. Total Phospho MFI (“TotalPhospho”)=log2(MFIModulated Stained)−log2(MFIGated Unstained (Autofluorescence)), a measure of the total levels of a protein under modulated conditions. • 4. Relative Protein Expression (“Rel. Expression”)=log2(MFIstain)−log2(MFIControl), a measure of the levels of surface marker staining relative to control antibody staining • 5. […]

AML leukemic cells = assay: Apotosis/Cytostasis Arm with kinase inhibitors (Example 13); assay type: cell-based, human; settings: two samples with greatest SCF and G-CSF signaling response; 1 μM; 48-hr incubation
From the text: All results were compared with results from bone marrow samples from healthy donors (N=6).

[1] = cited from earlier work

Structure (SMILES): COC(=O)CC(NC(=O)C(C)NC(=O)C(NC(=O)OCc1ccccc1)C(C)C)C(=O)CF (stereo not drawn) [Z-VAD, Benzyloxycarbonyl-Val-Ala-Asp (OMe) fluoromethylketone] (Cbz-Val-Ala-Asp(OMe)-CH2F; configuration not given here)
- effect of co-incubation with pan-Caspase inhibitor on Cleaved Caspase-3 and PARP (AML blasts; samples 0341, 0521): inhibited cleavage of caspase 3 and PARP to near completion
- effect of co-incubation with pan-Caspase inhibitor on PARP cleavage (AML blasts; samples 8303, 8402): only partially inhibited

Structure (SMILES): C[C@@H]1CCN(C(=O)CC#N)C[C@@H]1N(C)c1ncnc2[nH]ccc12 [CP-690,550]
- sensitivity to kinase inhibitor, cytostasis readouts (AML leukemic cells): most sensitive

Structure (SMILES): Nc1ccn([C@@H]2O[C@H](CO)[C@@H](O)[C@@H]2O)c(=O)n1 [Cytarabine, 1β-arabinofuranosylcytosine]
- peak plasma concentration ([1]; high dose Cytarabine, 3 g/m2): 2 µM
- peak plasma concentration ([1]; standard dose of Cytarabine, 100 mg/m2): approximately 40 nM
